According to PubChem BioAssay (NCI):
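96-well plates; 48 h exposure; 5 concentrations. Endpoints by linear interpolation between flanking doses. Not reached: highest tested concentration assigned. GI50 marks 50% less growth. The concentration for full growth arrest is given as TGI.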

Assays:
Assay in all cases: NCI-60 cell line screen, 48 h
786-0 renal = system: 786-0 renal
A498 renal = system: A498 renal
A549 NSCLC = system: A549 NSCLC
ACHN renal = system: ACHN renal
BT-549 breast = system: BT-549 breast
CAKI-1 renal = system: CAKI-1 renal
CCRF-CEM leukemia = system: CCRF-CEM leukemia
COLO 205 colon = system: COLO 205 colon
DU-145 prostate = system: DU-145 prostate
EKVX NSCLC = system: EKVX NSCLC
HCC-2998 colon = system: HCC-2998 colon
HCT-116 colon = system: HCT-116 colon
HCT-15 colon = system: HCT-15 colon
HL-60(TB) leukemia = system: HL-60(TB) leukemia
HOP-62 NSCLC = system: HOP-62 NSCLC
HOP-92 NSCLC = system: HOP-92 NSCLC
HS 578T breast = system: HS 578T breast
HT29 colon = system: HT29 colon
IGROV1 ovarian = system: IGROV1 ovarian
K-562 leukemia = system: K-562 leukemia
KM12 colon = system: KM12 colon
LOX IMVI melanoma = system: LOX IMVI melanoma
M14 melanoma = system: M14 melanoma
MALME-3M melanoma = system: MALME-3M melanoma
MCF7 breast = system: MCF7 breast
MDA-MB-231 breast = system: MDA-MB-231 breast
MDA-MB-435 = system: MDA-MB-435
MOLT-4 leukemia = system: MOLT-4 leukemia
NCI-H226 lung = system: NCI-H226 lung
NCI-H23 lung = system: NCI-H23 lung
NCI-H460 lung = system: NCI-H460 lung
NCI-H522 lung = system: NCI-H522 lung
NCI/ADR-RES ovarian = system: NCI/ADR-RES ovarian
OVCAR-3 ovarian = system: OVCAR-3 ovarian
OVCAR-4 ovarian = system: OVCAR-4 ovarian
OVCAR-5 ovarian = system: OVCAR-5 ovarian
OVCAR-8 ovarian = system: OVCAR-8 ovarian
PC-3 prostate = system: PC-3 prostate
RPMI-8226 leukemia = system: RPMI-8226 leukemia
SF-268 CNS = system: SF-268 CNS
SF-295 CNS = system: SF-295 CNS
SF-539 CNS = system: SF-539 CNS
SK-MEL-2 melanoma = system: SK-MEL-2 melanoma
SK-MEL-28 melanoma = system: SK-MEL-28 melanoma
SK-MEL-5 melanoma = system: SK-MEL-5 melanoma
SN12C renal = system: SN12C renal
SNB-19 CNS = system: SNB-19 CNS
SNB-75 CNS = system: SNB-75 CNS
SR leukemia = system: SR leukemia
SW-620 colon = system: SW-620 colon
T-47D breast = system: T-47D breast
TK-10 renal = system: TK-10 renal
U251 CNS = system: U251 CNS
UACC-257 melanoma = system: UACC-257 melanoma
UACC-62 melanoma = system: UACC-62 melanoma
UO-31 renal = system: UO-31 renal

## COc1ccc2c(c1)C(=O)c1c-2c(NCCCN(C)C)nc2ccccc12
786-0 renal
  GI50: 4.24 µM
  TGI: 18.7 µM
A498 renal
  GI50: 11.3 µM
  TGI: 23.8 µM
A549 NSCLC
  GI50: 1.86 µM
  TGI: 6 µM
ACHN renal
  GI50: 1.11 µM
  TGI: 2.31 µM
BT-549 breast
  GI50: 21.8 µM
  TGI: 62.3 µM
CAKI-1 renal
  GI50: 12.5 µM
  TGI: 29.6 µM
CCRF-CEM leukemia
  GI50: 1.48 µM
  TGI: 3.47 µM
COLO 205 colon
  GI50: 5.23 µM
  TGI: 18.8 µM
DU-145 prostate
  GI50: 6.67 µM
  TGI: 19.5 µM
EKVX NSCLC
  GI50: 5.54 µM
  TGI: 23.1 µM
HCC-2998 colon
  GI50: 2.48 µM
  TGI: 11.7 µM
HCT-116 colon
  GI50: 1.25 µM
  TGI: 2.65 µM
HCT-15 colon
  GI50: 1.42 µM
  TGI: 3.2 µM
HL-60(TB) leukemia
  GI50: 2.63 µM
  TGI: 12.3 µM
HOP-62 NSCLC
  GI50: 5.93 µM
  TGI: 19.9 µM
HOP-92 NSCLC
  GI50: 1.15 µM
  TGI: 8.6 µM
HS 578T breast
  GI50: 3.7 µM
  TGI: 16 µM
HT29 colon
  GI50: 1.02 µM
  TGI: 2.82 µM
IGROV1 ovarian
  GI50: 6.99 µM
  TGI: 19.9 µM
K-562 leukemia
  GI50: 3.69 µM
  TGI: 14.7 µM
KM12 colon
  GI50: 2.05 µM
  TGI: 5.72 µM
LOX IMVI melanoma
  GI50: 1.44 µM
  TGI: 2.82 µM
M14 melanoma
  GI50: 5.41 µM
  TGI: 17.9 µM
MALME-3M melanoma
  GI50: 3.86 µM
  TGI: 15.5 µM
MCF7 breast
  GI50: 1.54 µM
  TGI: 4.05 µM
MDA-MB-231 breast
  GI50: 1.98 µM
  TGI: 11.6 µM
MDA-MB-435
  GI50: 4.05 µM
  TGI: 15.4 µM
MOLT-4 leukemia
  GI50: 1.43 µM
  TGI: 11.1 µM
NCI-H226 lung
  GI50: 11.6 µM
  TGI: 24 µM
NCI-H23 lung
  GI50: 2.78 µM
  TGI: 10 µM
NCI-H460 lung
  GI50: 1.33 µM
  TGI: 2.76 µM
NCI-H522 lung
  GI50: 9.79 µM
  TGI: 23.4 µM
NCI/ADR-RES ovarian
  GI50: 4.03 µM
  TGI: 19.4 µM
OVCAR-3 ovarian
  GI50: 15.3 µM
  TGI: 31.7 µM
OVCAR-4 ovarian
  GI50: 0.898 µM
  TGI: 16.4 µM
OVCAR-5 ovarian
  GI50: 10.2 µM
  TGI: 21.9 µM
OVCAR-8 ovarian
  GI50: 1.74 µM
  TGI: 7.67 µM
PC-3 prostate
  GI50: 3.53 µM
  TGI: 14.2 µM
RPMI-8226 leukemia
  GI50: 1.93 µM
  TGI: 4.39 µM
SF-268 CNS
  GI50: 1.7 µM
  TGI: 4.71 µM
SF-295 CNS
  GI50: 5.13 µM
  TGI: 18.9 µM
SF-539 CNS
  GI50: 10.8 µM
  TGI: 24.6 µM
SK-MEL-2 melanoma
  GI50: 18.4 µM
  TGI: 34.3 µM
SK-MEL-28 melanoma
  GI50: 0.524 µM
  TGI: 1.94 µM
SK-MEL-5 melanoma
  GI50: 3.87 µM
  TGI: 14.4 µM
SN12C renal
  GI50: 2.26 µM
  TGI: 6.84 µM
SNB-19 CNS
  GI50: 7.44 µM
  TGI: 21.2 µM
SNB-75 CNS
  GI50: 0.997 µM
  TGI: 11.8 µM
SR leukemia
  GI50: 1.09 µM
  TGI: 3.58 µM
SW-620 colon
  GI50: 1.45 µM
  TGI: 2.99 µM
T-47D breast
  GI50: 17.8 µM
  TGI: 34.2 µM
TK-10 renal
  GI50: 4.33 µM
  TGI: 18.3 µM
U251 CNS
  GI50: 1.98 µM
  TGI: 4.42 µM
UACC-257 melanoma
  GI50: 11.8 µM
  TGI: 25.4 µM
UACC-62 melanoma
  GI50: 2.09 µM
  TGI: 4.41 µM
UO-31 renal
  GI50: 4.91 µM
  TGI: 18.4 µM
